Results: patent publication US20120315345A1, “FUNCTIONAL FOOD AND PHARMACEUTICAL COMPOSITIONS FOR ANTI-OBESITY COMPRISING CAPSANTHIN AND FATTY-ACYL ESTER OF CAPSANTHIN HAVING ANTI-ADIPOGENIC ACTIVITY” (ESBIOTECH CO., LTD., priority 2011, published 2012)
Where two headings read alike, the source gives them in different places.

Key:
3T3-L1 cell = assay: Inhibitory activity on triglycerides accumulation in adipocyte (Oil Red O staining); type: cell-based, mouse; conditions: read-out: IC50-value on triglycerides accumulation in adipocyte
Description: (§1) 3T3-L1 mouse embryonic fibroblast was cultured according to Singh's method (Singh R, Testosterone inhibits adipogenic differentiation in 3T3-L1 cells: Nuclear translocation of androgen receptor complex with β-catenin and T-cell factor 4 may bypass canonical WNT signaling to down-regulate adipogenic transcription factors, Endocrinology, 2006, 147, 141 to 154).
(§2) 3T3-L1 cells supplied by Korean cell line bank were cultured on a Dulbecco's modified Eagle's medium (DMEM) medium that includes 10% bovine calf serum and 1% penicillin-streptomycin mixture. When they reached confluence, culturing was continued for further 2 to 3 days. Thereafter, the medium was replaced by a fresh DMEM medium containing 10% fetal bovine serum, 1.7 μM insulin, 0.5 mM 3-isobutyl-1-methylxanthine (IBMX) and 1 μM dexamethasone and culturing was continued for 8 days. For the evaluation of inhibitory activities of capsanthin on adipocyte differentiation and on triglycerides accumulation in adipocyte, a positive control experiments were conducted on capsaicin (sigma) and/or genistein (sigma).
Negal's Oil red O staining procedure (Negrel R, Culture of adipose precursor cell and cells of clonal lines from animal white adipose tissue, in adipose tissue protocols. G. Ailhaud (ed). Humana press, inc., Totowa, N.J., 2001, 225-237) was adopted to assay the quantities of triglyceides accumulated in adipocytes. The pre-adipocytes (3T3-L1 cell) were cultured in 12-well culture plate for additional two days to induce clonal expansion after the confluent phase. The culture media was replaced with differentiation media which is containing various concentration of capsanthin solution in DMSO (final concentration of DMSO in the differentiation media were kept under 0.1%) and cultured for additional 8 days to induce lipid accumulation. The culture media was removed by aspiration and washed with PBS. The cells were fixed on the surface of culture well by incubation for one hour with 500 ul of 10% formaldehyde solution. After removal of formaldehyde the cells were washed with PBS and then stained by incubation with Oil Red O for 2 hours. After two removal of Oil Red O solution by aspiration the cells were washed with PBS and then Oil Red O in adipocyte was extracted by incubation 10 minutes with 1 ml isopropyl-alcohol. Oil Red O contents in isopropyl-alcohol were assayed by 510 nm absorption on ELISA reader.

3T3-L1 cells = assay: Inhibition test on adipocyte differentiation (counting of Oil Red O stained cells); type: cell-based, mouse; conditions: 3 days in differentiation medium, microscopical counting of Oil Red O stained cells
Description: as §1, §2
Mouse embryonic 3T3-L1 cells were plated in 12-well culture plate with DMEM containing 10% BCS (Bovine calf serum) and cultured for the proliferation of cells under 5% CO2 atmosphere at 37° C. until confluent phase is appeared. Continued culture for additional 2 days will ensure the clonal expansion. Culture media is replaced with differentiation medium consisting of DMEM, 10% FBS, 1.7 uM insulin, 0.5 mM IBMX, 1 uM dexamethasone and varying amount of capsanthin in DMSO (final concentration of DMSO in the differentiation media were kept under 0.1%) and cultured additional 3 days for the induction of cell differentiation Culture media was removed and washed with PBS and the cells were fixed on the well surface by incubation with 10% formaldehyde for one hour and then washed with PBS. The differentiate cells were stained with Oil Red O solution for 2 hours. The number of adipocyte stained red was counted with microscopical observation.

[1] = Stability during fermentation of kochujang; type: physicochemical
From the text: Capsanthin is contained in the natural products such as red peppers as the chemically stable esterified-form. Therefore, even when red peppers or the likes are included in fermented foods as the Korean traditional foods like “kimchi” or “kochujang” (also referred to as “gochujang”), original anti-adipogenic activities thereof are retained. On the other hand, it was found in our laboratory that about 35% or more of anti-adipogenic capsaicin component was destroyed during 6 month-long fermentation.
Red pepper is a traditional spicy vegetable food and more than 90% of total consumption in Korea is used to prepare traditional fermented food such as “kimchi” and “kochujang” in Korea. […] Based on this observation, present inventors are claiming that the anti-adipogenic activity of “kochujang” is due more to capsanthin components rather than to the capsaicin or capsaicin metabolite.

[2] = parameters: species or system Sprague-Dawley albino rats; conditions: rat, in vivo
Description: Male Sprague-Dawley albino rats were used for the analysis of gastro-intestinal absorption of capsanthins. Animals were accommodated in a constant humidity of 50 (±5) % and constant temperature of 25 (±1)° C. under shading control of light and dark with 12 hours intervals. Feeds and water supplies were provided at libidium.
Free-form capsanthin (15 mg/kg body wt) in soy-bean oil was orally administered to group-1 animals and then 4 ml time-course blood samples were collected from the animals to EDTA tubes and centrifuged (3,000 rpm, 10 min) to obtain 1 ml plasma samples. To the plasma samples 1 ml of 1%-BHT in ethanol and 2 ml hexane were mixed, shaked vigorously and centrifuged for 5 minutes at 2,000 rpm to obtain hexane layer for the HPLC-analysis under the HPLC-condition appears in Example 10. (M. A. Grashom, Quantification of carotenoids in chicken plasma after feeding free of esterified lutein and capsanthin using high-performance liquid chromatography and liquid chromatography-mass spectrometry analysis, Poultry science, 2003, 82, 395-401, Hideo E, Carotenoids in human blood plasma after ingesting paprika juice)
Fatty-acyl ester of capsanthin was orally administered to group-2 animals equimolar dosage bases with that of free-form capsanthin. The time course collection of blood and further treatments were conducted as same way with that of group-1 experiments [Ref. to 0086]

[3] = 3T3-L1 cells, 8 days in differentiation media, Oil Red O

Row | Molecular species found in the blood by HPLC after oral administration [2] | Molecule | IC50 (3T3-L1 cell; Mus musculus, 192 h, 3T3-L1 cells, 8 days in differentiation media, Oil Red O) [µM] | IC50 (3T3-L1 cells; Mus musculus, 72 h) [µM] | Component destroyed during fermentation ([1]; 6 month-long fermentation) [%] | Chemical alteration during fermentation of kochujang [1] | IC50 (3T3-L1 cell; Mus musculus, 3T3-L1, 192 h) [µM] | IC50 (3T3-L1 cell; [3]) [µM] | IC50 (3T3-L1 cells) [µM]
1 | – | O=c1c(-c2ccc(O)cc2)coc2cc(O)cc(O)c12 [genistein] | 58.7 | 28.1 | – | – | – | – | –
2 | – | COc1cc(CNC(=O)CCCC/C=C/C(C)C)ccc1O [capsaicin] | – | 3.39 | ≥ 35 | significant decomposition | 32.6 | – | –
3 | not detected | fatty-acyl ester of capsanthin [esterified-form capsanthin] | – | – | – | remained without any chemical alteration | – | 55.2 | 75.4
4 | appeared in the blood | CC1=C(/C=C/C(C)=C/C=C/C(C)=C/C=C/C=C(C)/C=C/C=C(C)/C=C/C(=O)[C@]2(C)C[C@@H](O)CC2(C)C)C(C)(C)C[C@H](O)C1 [free-form capsanthin, capsanthin] | – | – | – | – | – | 1.31 | 4.49
5 | – | fucoxanthin | – | – | – | – | – | 54.8 | 79.1
